Assay results published in US9340590B2 (priority 2011, dated 2016).
Read-outs that look alike come from different tables or passages of the source. Positions of bridges follow the written chain, without caps; N, C: chain ends. Non-standard residues stand in square brackets, D forms with d. Residues, ends and D or L forms follow the SMILES beside them. Abu = CC[C@H](N)C(=O)O

Tests used:
[1] = system: locomotor activity in male CD-1 mice; conditions: 5 mg/kg
[2] = in vivo; conditions: male, CD-1, mouse, sc, 5 mg/kg, terminal exposure (peptide plasma concentration at 2 h post peptide injection), later studies, 5 mg/kg s.c.
[3] = target: T1, hNav1.5 (Homo sapiens, UniProt Q14524); experiment: cell-based; conditions: read-out: Nav1.5 Use IC50
[4] = target: T2, hNav1.3 (Homo sapiens, UniProt Q9NY46); experiment: cell-based; assay type: cell-based
[5] = rat plasma, 37° C.
[6] = target: T3, hNav1.7 (Homo sapiens, UniProt Q15858); experiment: cell-based; conditions: Nav1.7 Use IC50
[7] = in vitro; conditions: human, plasma
[8] = mouse plasma, 37° C., incubation time 0 hr (normalisation point)
[9] = target: T2, hNav1.3; experiment: cell-based; conditions: IonWorks Quattro; clamped to −110 mV, depolarized to −10 mV, 5 min after compound; n=2; read-out: IWQ Use Nav1.3
[10] = in vitro; conditions: mouse, plasma
[11] = target: T1, hNav1.5; experiment: cell-based
[12] = human plasma, 37° C., incubation time 0 hr (normalisation point)
[13] = in vivo; conditions: male, CD-1, mouse, sc, 5 mg/kg, terminal exposure (peptide plasma concentration at 45 min post formalin injection)
[14] = target: T1, hNav1.5; assay type: cell-based
[15] = target: hNav1.4 (Homo sapiens, UniProt P35499); experiment: cell-based; conditions: read-out: Nav1.4 Use IC50
[16] = target: T3, hNav1.7; assay type: cell-based

T2 sequence (Q9NY46 whole entry, looked up): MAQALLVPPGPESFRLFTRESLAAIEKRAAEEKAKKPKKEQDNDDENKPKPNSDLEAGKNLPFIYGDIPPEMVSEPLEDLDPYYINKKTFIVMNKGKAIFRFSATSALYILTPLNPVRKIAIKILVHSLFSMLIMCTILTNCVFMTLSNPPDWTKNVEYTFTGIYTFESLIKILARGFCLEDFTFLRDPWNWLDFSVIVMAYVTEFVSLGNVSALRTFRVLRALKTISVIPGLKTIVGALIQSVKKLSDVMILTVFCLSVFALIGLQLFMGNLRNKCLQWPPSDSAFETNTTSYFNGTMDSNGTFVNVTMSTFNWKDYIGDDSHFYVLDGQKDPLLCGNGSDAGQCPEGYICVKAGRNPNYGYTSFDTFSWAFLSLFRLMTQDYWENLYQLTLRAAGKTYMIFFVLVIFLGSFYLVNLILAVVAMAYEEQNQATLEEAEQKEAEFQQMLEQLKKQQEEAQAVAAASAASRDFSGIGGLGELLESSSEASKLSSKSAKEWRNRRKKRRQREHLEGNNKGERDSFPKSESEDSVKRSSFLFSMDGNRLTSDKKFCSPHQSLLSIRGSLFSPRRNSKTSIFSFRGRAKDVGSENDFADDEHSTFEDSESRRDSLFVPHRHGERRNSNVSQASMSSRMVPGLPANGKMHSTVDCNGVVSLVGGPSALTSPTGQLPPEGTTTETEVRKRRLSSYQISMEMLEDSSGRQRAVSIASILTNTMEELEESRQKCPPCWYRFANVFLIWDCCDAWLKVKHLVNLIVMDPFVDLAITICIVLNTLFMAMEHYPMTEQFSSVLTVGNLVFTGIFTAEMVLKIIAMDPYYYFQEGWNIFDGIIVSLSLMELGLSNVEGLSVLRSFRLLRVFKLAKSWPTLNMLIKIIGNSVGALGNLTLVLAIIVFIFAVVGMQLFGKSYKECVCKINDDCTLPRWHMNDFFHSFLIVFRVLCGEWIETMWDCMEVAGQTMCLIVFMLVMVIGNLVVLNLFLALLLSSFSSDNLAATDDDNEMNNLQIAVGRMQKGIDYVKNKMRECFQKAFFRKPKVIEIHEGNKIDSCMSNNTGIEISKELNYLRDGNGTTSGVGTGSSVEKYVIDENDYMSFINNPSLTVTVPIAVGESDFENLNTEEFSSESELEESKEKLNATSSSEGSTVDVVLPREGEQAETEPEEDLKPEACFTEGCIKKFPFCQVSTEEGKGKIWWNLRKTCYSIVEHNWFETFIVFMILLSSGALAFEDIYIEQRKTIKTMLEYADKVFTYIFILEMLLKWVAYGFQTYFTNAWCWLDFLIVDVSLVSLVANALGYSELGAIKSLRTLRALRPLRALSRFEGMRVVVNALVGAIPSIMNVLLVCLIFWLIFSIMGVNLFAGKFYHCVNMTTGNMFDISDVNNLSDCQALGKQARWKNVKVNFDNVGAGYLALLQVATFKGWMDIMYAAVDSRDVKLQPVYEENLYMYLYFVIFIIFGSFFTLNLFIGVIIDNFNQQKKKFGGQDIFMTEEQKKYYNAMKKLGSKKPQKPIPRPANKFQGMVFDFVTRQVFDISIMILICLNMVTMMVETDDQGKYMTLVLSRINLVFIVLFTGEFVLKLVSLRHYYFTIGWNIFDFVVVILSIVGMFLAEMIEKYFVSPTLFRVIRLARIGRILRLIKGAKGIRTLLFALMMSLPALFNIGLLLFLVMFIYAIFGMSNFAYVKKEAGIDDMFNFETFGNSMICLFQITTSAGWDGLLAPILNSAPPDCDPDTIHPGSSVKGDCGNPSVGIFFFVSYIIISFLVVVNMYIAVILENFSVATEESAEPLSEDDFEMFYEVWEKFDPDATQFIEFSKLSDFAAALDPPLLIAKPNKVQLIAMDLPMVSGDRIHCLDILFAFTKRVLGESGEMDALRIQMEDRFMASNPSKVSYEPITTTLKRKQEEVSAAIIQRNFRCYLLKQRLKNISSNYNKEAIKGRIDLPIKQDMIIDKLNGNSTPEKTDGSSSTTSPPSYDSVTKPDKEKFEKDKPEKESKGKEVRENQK
T1 sequence (Q14524 whole entry, looked up): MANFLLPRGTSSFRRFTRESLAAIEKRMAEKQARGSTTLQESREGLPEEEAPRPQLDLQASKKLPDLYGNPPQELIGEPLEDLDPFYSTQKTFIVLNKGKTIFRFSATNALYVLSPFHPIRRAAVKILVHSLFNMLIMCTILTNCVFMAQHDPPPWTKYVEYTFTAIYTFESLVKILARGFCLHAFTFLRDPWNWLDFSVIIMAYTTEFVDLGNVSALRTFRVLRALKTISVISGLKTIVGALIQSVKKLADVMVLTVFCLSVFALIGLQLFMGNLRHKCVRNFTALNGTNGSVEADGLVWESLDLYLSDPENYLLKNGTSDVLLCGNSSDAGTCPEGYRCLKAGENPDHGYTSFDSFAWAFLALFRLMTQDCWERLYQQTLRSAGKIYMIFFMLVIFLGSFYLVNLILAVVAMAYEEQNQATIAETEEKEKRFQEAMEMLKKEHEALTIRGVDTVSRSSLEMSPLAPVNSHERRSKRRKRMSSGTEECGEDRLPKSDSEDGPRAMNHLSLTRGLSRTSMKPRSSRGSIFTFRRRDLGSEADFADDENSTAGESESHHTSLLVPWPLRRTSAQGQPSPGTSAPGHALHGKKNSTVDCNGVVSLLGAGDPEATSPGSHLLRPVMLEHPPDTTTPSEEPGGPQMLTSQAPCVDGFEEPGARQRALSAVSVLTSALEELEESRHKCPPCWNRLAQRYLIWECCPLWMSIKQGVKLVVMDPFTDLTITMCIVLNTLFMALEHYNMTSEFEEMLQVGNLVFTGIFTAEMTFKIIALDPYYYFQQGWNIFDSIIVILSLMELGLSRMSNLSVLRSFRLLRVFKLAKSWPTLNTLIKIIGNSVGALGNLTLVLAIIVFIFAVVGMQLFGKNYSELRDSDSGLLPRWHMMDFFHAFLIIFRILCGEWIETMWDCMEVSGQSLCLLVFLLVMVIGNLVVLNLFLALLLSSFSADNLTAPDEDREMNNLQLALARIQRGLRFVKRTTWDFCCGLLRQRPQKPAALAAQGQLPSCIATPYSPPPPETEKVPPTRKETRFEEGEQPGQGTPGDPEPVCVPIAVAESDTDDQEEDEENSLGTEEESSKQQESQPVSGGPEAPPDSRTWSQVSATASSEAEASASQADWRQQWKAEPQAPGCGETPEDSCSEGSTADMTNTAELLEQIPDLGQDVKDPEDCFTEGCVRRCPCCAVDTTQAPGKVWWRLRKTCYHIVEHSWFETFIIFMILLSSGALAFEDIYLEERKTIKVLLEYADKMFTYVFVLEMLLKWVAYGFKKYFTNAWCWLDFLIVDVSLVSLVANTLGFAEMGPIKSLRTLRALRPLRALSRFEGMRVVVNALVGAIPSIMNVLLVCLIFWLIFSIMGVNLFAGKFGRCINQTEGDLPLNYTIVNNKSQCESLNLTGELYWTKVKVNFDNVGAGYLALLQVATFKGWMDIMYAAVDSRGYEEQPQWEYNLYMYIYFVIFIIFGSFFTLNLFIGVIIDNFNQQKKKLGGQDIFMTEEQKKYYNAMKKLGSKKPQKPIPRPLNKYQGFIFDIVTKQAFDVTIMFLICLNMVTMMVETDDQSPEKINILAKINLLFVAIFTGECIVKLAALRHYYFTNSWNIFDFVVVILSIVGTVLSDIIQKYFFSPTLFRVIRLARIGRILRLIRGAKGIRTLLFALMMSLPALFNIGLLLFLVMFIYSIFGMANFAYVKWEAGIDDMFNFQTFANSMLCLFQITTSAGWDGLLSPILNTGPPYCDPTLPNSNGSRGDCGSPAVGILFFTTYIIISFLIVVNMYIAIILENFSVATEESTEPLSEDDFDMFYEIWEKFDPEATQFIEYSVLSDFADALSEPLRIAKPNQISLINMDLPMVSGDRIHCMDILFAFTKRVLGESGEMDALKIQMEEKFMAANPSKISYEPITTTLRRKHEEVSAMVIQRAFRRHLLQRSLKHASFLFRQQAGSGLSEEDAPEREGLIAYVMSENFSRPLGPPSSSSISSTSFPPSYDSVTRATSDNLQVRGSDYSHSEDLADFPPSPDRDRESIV

Molecule: CC[C@@H]1NC(=O)[C@H](CC(=O)O)NC(=O)[C@@H]2CCCN2C(=O)[C@H](CCC(=O)O)NC(=O)[C@@H]2CSSC[C@@H]3NC(=O)[C@H](C(C)C)NC(=O)[C@H](CC(C)C)NC(=O)[C@H](CC(N)=O)NC(=O)[C@@H]4CCCN4C(=O)[C@H](CCCNC(=N)N)NC(=O)[C@H](CSSC[C@H](NC(=O)[C@@H](N)CC(=O)O)C(=O)N[C@@H](CC(C)C)C(=O)NCC(=O)N[C@@H](C)C(=O)N[C@@H](Cc4ccccc4)C(=O)N[C@@H](CCCNC(=N)N)C(=O)N[C@@H](CCCCN)C(=O)N2)NC(=O)[C@H](CSSC[C@@H](C(=O)N[C@@H](CCCCN)C(=O)N[C@@H](Cc2ccc(O)cc2)C(=O)N[C@H](C(=O)N[C@@H](Cc2ccccc2)C(N)=O)C(C)C)NC(=O)[C@H](Cc2c[nH]c4ccccc24)NC(=O)[C@H](CCCNC(=N)N)NC(=O)[C@H](Cc2c[nH]cn2)NC(=O)[C@H](CC(C)C)NC(=O)[C@H](CCCNC(=N)N)NC(=O)[C@H](CO)NC3=O)NC(=O)[C@H](CCCCN)NC(=O)[C@H](CC(=O)O)NC1=O (H-DCLGAFRKCEPD[Abu]DKCCRPNLVCSRLHRWCKYVF-NH2; disulfide 2-17, 9-23, 16-30)
- behavior of animals in the open field analysis [1]: moribund behavior or lethality
- level at time molar at 2 h [2]: 1720 ± 313 nM

Molecule: CSCC[C@@H]1NC(=O)[C@H](Cc2ccccc2)NC(=O)CNC(=O)[C@H](CC(C)C)NC(=O)[C@@H](NC(=O)[C@@H](N)CC(=O)O)CSSC[C@@H]2NC(=O)[C@@H]3CSSC[C@@H](C(=O)N[C@@H](CCCCN)C(=O)N[C@@H](Cc4ccc(O)cc4)C(=O)N[C@H](C(=O)N[C@@H](Cc4ccccc4)C(N)=O)C(C)C)NC(=O)[C@H](Cc4c[nH]c5ccccc45)NC(=O)[C@H](CCCCN)NC(=O)[C@H](Cc4c[nH]cn4)NC(=O)[C@H]([C@@H](C)O)NC(=O)[C@H](CCCNC(=N)N)NC(=O)[C@H](CO)NC(=O)[C@H](CSSC[C@H](NC(=O)[C@H](CCCCN)NC(=O)[C@H](CCCNC(=N)N)NC1=O)C(=O)N[C@@H](Cc1cccc4ccccc14)C(=O)N1CCC[C@H]1C(=O)N[C@@H](CC(=O)O)C(=O)N[C@@H](CC(N)=O)C(=O)N[C@@H](CC(=O)O)C(=O)N[C@@H](CCCCN)C(=O)N3)NC(=O)[C@H](C(C)C)NC(=O)[C@H](CC(C)C)NC(=O)[C@H](CC(N)=O)NC(=O)[C@@H]1CCCN1C(=O)[C@H](CCCNC(=N)N)NC2=O [[1-Nal10]GpTx-1(1-34)]
- IC50 [3]: 12900 nM
- IC50 ([4]; Nav1.3 Use IC50): 39 nM
- % peptide remaining ([5]; incubation time 0 hr): 100%
- % peptide remaining ([5]; incubation time 2 hr): 104%
- % peptide remaining ([5]; incubation time 4 hr): 106%
- % peptide remaining ([5]; incubation time 6 hr): 108%
- % peptide remaining ([5]; incubation time 8 hr): 112%
- % peptide remaining ([5]; incubation time 24 hr): 89%
- IC50 [6]: 5 nM

Molecule: CC[C@H](C)[C@@H]1NC(=O)[C@@H]2CSSC[C@@H]3NC(=O)[C@H](C(C)C)NC(=O)[C@H](CC(C)C)NC(=O)[C@H](CC(N)=O)NC(=O)[C@@H]4CCCN4C(=O)[C@H](CCCNC(=N)N)NC(=O)[C@H](CSSC[C@H](NC(=O)[C@H](CC(=O)O)NC(C)=O)C(=O)N[C@@H](CC(C)C)C(=O)NCC(=O)N[C@@H](Cc4ccccc4)C(=O)N[C@@H](CCSC)C(=O)N[C@@H](CCCNC(=N)N)C(=O)N[C@@H](CCCCN)C(=O)N2)NC(=O)[C@H](CSSC[C@@H](C(=O)N[C@@H](CCCCN)C(=O)N[C@@H](Cc2ccc(O)cc2)C(=O)N[C@H](C(=O)N[C@@H](Cc2ccccc2)C(N)=O)C(C)C)NC(=O)[C@H](Cc2c[nH]c4ccccc24)NC(=O)[C@H](CCCCN)NC(=O)[C@H](Cc2cnc[nH]2)NC(=O)[C@H]([C@@H](C)O)NC(=O)[C@H](CCCNC(=N)N)NC(=O)[C@H](CO)NC3=O)NC(=O)[C@H](CCCCN)NC(=O)[C@H](CC(=O)O)NC(=O)[C@H](CC(N)=O)NC(=O)[C@H](CC(=O)O)NC(=O)[C@@H]2CCCN2C1=O [SEQ ID NO: 132]
- remaining at 2 h [7]: 100%
- remaining at 4 h [7]: 104%
- remaining at 8 h [7]: 101%
- remaining at 24 h [7]: 97%
- % peptide remaining [8]: 100%
- IC50 [9]: 220 nM
- remaining at 2 h [10]: 105%
- remaining at 4 h [10]: 103%
- remaining at 8 h [10]: 103%
- remaining at 24 h [10]: 106%
- IC50 ([11]; IWQ Use Nav1.5): 12700 nM
- % peptide remaining [12]: 100%
- IC50 ([4]; Nav1.3 Use IC50): 84 nM

Molecule: CC[C@H](C)[C@@H]1NC(=O)[C@@H]2CSSC[C@@H]3NC(=O)[C@H](C(C)C)NC(=O)[C@H](CC(C)C)NC(=O)[C@H](CC(N)=O)NC(=O)[C@@H]4CCCN4C(=O)[C@H](CCCNC(=N)N)NC(=O)[C@H](CSSC[C@H](NC(=O)[C@@H](N)CC(=O)O)C(=O)N[C@@H](CC(C)C)C(=O)NCC(=O)N[C@@H](Cc4ccccc4)C(=O)N[C@@H](CCSC)C(=O)N[C@@H](CCCNC(=N)N)C(=O)N[C@@H](CCCCN)C(=O)N2)NC(=O)[C@H](CSSC[C@@H](C(=O)N[C@@H](CCCCN)C(=O)N[C@@H](Cc2ccc(O)cc2)C(=O)N[C@H](C(=O)N[C@@H](Cc2ccccc2)C(N)=O)C(C)C)NC(=O)[C@H](Cc2c[nH]c4ccccc24)NC(=O)[C@H](CCC(=O)O)NC(=O)[C@H](Cc2cnc[nH]2)NC(=O)[C@H]([C@@H](C)O)NC(=O)[C@H](CCCNC(=N)N)NC(=O)[C@H](CO)NC3=O)NC(=O)[C@H](CCCCN)NC(=O)[C@H](CC(=O)O)NC(=O)[C@H](CC(N)=O)NC(=O)[C@H](CC(=O)O)NC(=O)[C@@H]2CCCN2C1=O [[Glu28]GpTx-1(1-34)] (H-DCLGFMRKCIPDNDKCCRPNLVCSRTHEWCKYVF-NH2; disulfide 2-17, 9-23, 16-30)
- level at time molar at 2 h [2]: 1280 ± 403 nM
- IC50 [6]: 26 nM

Molecule: CC[C@H](C)[C@@H]1NC(=O)[C@@H]2CSSC[C@@H]3NC(=O)[C@H](C(C)C)NC(=O)[C@H](CC(C)C)NC(=O)[C@H](CC(N)=O)NC(=O)[C@@H]4CCCN4C(=O)[C@H](CCCNC(=N)N)NC(=O)[C@H](CSSC[C@H](NC(=O)[C@@H](N)CC(=O)O)C(=O)N[C@@H](CC(C)C)C(=O)NCC(=O)N[C@@H](Cc4ccccc4)C(=O)N[C@@H](CCSC)C(=O)N[C@@H](CCCNC(=N)N)C(=O)N[C@@H](CCCCN)C(=O)N2)NC(=O)[C@H](CSSC[C@@H](C(=O)N[C@@H](CCCCN)C(=O)N[C@@H](Cc2ccc(O)cc2)C(=O)N[C@H](C(=O)N[C@@H](Cc2ccccc2)C(N)=O)C(C)C)NC(=O)[C@H](CCC(=O)O)NC(=O)[C@H](CCCCN)NC(=O)[C@H](Cc2cnc[nH]2)NC(=O)[C@H]([C@@H](C)O)NC(=O)[C@H](CCCNC(=N)N)NC(=O)[C@H](CO)NC3=O)NC(=O)[C@H](CCCCN)NC(=O)[C@H](CC(=O)O)NC(=O)[C@H](CC(N)=O)NC(=O)[C@H](CC(=O)O)NC(=O)[C@@H]2CCCN2C1=O [[Glu29]GpTx-1(1-34)] (H-DCLGFMRKCIPDNDKCCRPNLVCSRTHKECKYVF-NH2; disulfide 2-17, 9-23, 16-30)
- level at time molar at […] [13]: 502 ± 271 nM
- level at time molar at 2 h [2]: 771 ± 272 nM

Molecule: [Phe6,Atz(2 kDa EtO-PEG*-{[Phe6,Atz13*]GpTx-1(1-34)}) 13]GpTx-1(1-34) [Homodimeric Conjugate 1]
- inhibition of the Nav1.5 current [14]: complete inhibition
- IC50 ([14]; read-out: IC50 against hNav1.5 sodium channels): 75.5 nM
- IC50 ([14]; read-out: IC50 against hNav1.5 sodium channels, partially inactivated): 57 nM
- IC50 [15]: 254 nM
- IC50 [3]: 1430 nM
- IC50 ([4]; read-out: Nav1.3 Use IC50): 8 nM
- inhibition of the Nav1.7 current [16]: complete inhibition

Molecule: CC[C@H](C)[C@@H]1NC(=O)[C@@H]2CSSC[C@@H]3NC(=O)[C@H](C(C)C)NC(=O)[C@H](CC(C)C)NC(=O)[C@H](CC(N)=O)NC(=O)[C@@H]4CCCN4C(=O)[C@H](CCCNC(=N)N)NC(=O)[C@H](CSSC[C@H](N)C(=O)N[C@@H](CC(C)C)C(=O)NCC(=O)N[C@@H](Cc4ccccc4)C(=O)N[C@@H](CCSC)C(=O)N[C@@H](CCCNC(=N)N)C(=O)N[C@@H](CCCCN)C(=O)N2)NC(=O)[C@H](CSSC[C@@H](C(=O)N[C@@H](CCCCN)C(=O)N[C@@H](Cc2ccc(O)cc2)C(=O)N[C@H](C(=O)N[C@@H](Cc2ccccc2)C(N)=O)C(C)C)NC(=O)[C@H](Cc2c[nH]c4ccccc24)NC(=O)[C@H](CCCCN)NC(=O)[C@H](Cc2cnc[nH]2)NC(=O)[C@H]([C@@H](C)O)NC(=O)[C@H](CCCNC(=N)N)NC(=O)[C@H](CO)NC3=O)NC(=O)[C@H](CCCCN)NC(=O)[C@H](CC(=O)O)NC(=O)[C@H](CC(N)=O)NC(=O)[C@H](CC(=O)O)NC(=O)[C@@H]2CCCN2C1=O [SEQ ID NO: 108] (H-CLGFMRKCIPDNDKCCRPNLVCSRTHKWCKYVF-NH2; disulfide 1-16, 8-22, 15-29)
- remaining at 2 h [7]: 107%
- remaining at 4 h [7]: 92%
- remaining at 8 h [7]: 91%
- remaining at 24 h [7]: 82%
- % peptide remaining [8]: 100%
- IC50 [9]: 50 nM
- remaining at 2 h [10]: 100%
- remaining at 4 h [10]: 95%
- remaining at 8 h [10]: 87%
- remaining at 24 h [10]: 81%
- IC50 ([11]; IonWorks Quattro, clamped to −110 mV, depolarized to −10 mV, 5 min after compound, n=2, read-out: IWQ Use Nav1.5): 8220 nM
- % peptide remaining [12]: 100%
- IC50 ([4]; Nav1.3 Use IC50): 15 nM
- IC50 [6]: 7 nM
